Source: US20060069132A1, “Azolecarboxamide herbicides” (priority 2004, published 2006)

What was measured:
[1] = test system: barnyardgrass; assay: Test B pre-/postemergence herbicide test; type: in vivo, Echinochloa crus-galli; conditions: for Barnyardgrass plant response rating: postemergence
Outline: (§1)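 Seeds were planted and treated preemergence with compounds formulated in a non-phytotoxic solvent mixture containing surfactant, while plants at the 1- to 4-leaf stage (2 to 18 cm) received postemergence sprays. Flooded paddy plants were grown to the 2-leaf stage. After 13 to 15 days in a greenhouse, injury was visually rated 0–100 against untreated controls.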

[2] = test system: Surinam grass; assay: Test B pre-/postemergence herbicide test; type: in vivo, Urochloa decumbens; conditions: for Surinam Grass plant response rating: postemergence
Outline: (§2)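 Test chemicals in a non-phytotoxic solvent mixture with surfactant were applied preemergence to seeded species and postemergence to plants 2-18 cm tall (1- to 4-leaf stage); rice and barnyardgrass were also tested in a flooded paddy at the 2-leaf stage. Visual rating versus controls after 13-15 days in greenhouse, scale 0 (no effect) to 100 (complete control).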

[3] = test system: cocklebur; assay: Test B pre-/postemergence herbicide test; type: in vivo, Xanthium strumarium; conditions: for Cocklebur plant response rating: postemergence
Outline: as §1

[4] = test system: corn; assay: Test B pre-/postemergence herbicide test; type: in vivo, Zea mays; conditions: for Corn plant response rating: postemergence
Outline: as §2

[5] = test system: large crabgrass; assay: Test B pre-/postemergence herbicide test; type: in vivo, Digitaria sanguinalis; conditions: for Crabgrass, Large plant response rating: postemergence
Outline: as §2

[6] = test system: giant foxtail; assay: Test B pre-/postemergence herbicide test; type: in vivo, Setaria faberi; conditions: for Foxtail, Giant plant response rating: postemergence
Outline: as §2

[7] = test system: lambsquarters; assay: Test B pre-/postemergence herbicide test; type: in vivo, Chenopodium album; conditions: for Lambsquarters plant response rating: postemergence
Outline: as §2

[8] = test system: morningglory; assay: Test B pre-/postemergence herbicide test; type: in vivo, Ipomoea coccinea; conditions: for Morningglory plant response rating: postemergence
Outline: as §1

[9] = test system: pigweed; assay: Test B pre-/postemergence herbicide test; type: in vivo, Amaranthus retroflexus; conditions: for Pigweed plant response rating: postemergence
Outline: as §2

[10] = test system: rice; assay: Test B pre-/postemergence herbicide test; type: in vivo, Oryza sativa; conditions: 0 = no effect, 100 = complete control, preemergence
Outline: as §2

[11] = test system: velvetleaf; assay: Test B pre-/postemergence herbicide test; type: in vivo, Abutilon theophrasti; conditions: for Velvetleaf plant response rating: postemergence
Outline: as §2

[12] = test system: blackgrass; assay: Test B postemergence herbicide test; type: in vivo, Alopecurus myosuroides; conditions: postemergence
Outline: (§3)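 Postemergence plants were sprayed with formulated test chemicals at 2 to 18 cm height (1- to 4-leaf stage); paddy species were grown to the 2-leaf stage. After 13 to 15 days in a greenhouse, injury was rated visually against untreated controls on a 0–100 scale (0 = no effect, 100 = complete control).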

[13] = test system: wheat; assay: Test B postemergence herbicide test; type: in vivo, Triticum aestivum; design: key to Wheat plant response rating: 0 = no effect, 100 = complete control; conditions: postemergence
Outline: (§4)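 Each value is a visual 0–100 response rating taken against controls 13 to 15 days after treatment in the greenhouse. Plants received formulated chemical postemergence at the 1- to 4-leaf stage or, in flooded paddy, at the 2-leaf stage.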

[14] = test system: wild oat; assay: Test B postemergence herbicide test; type: in vivo, Avena fatua; conditions: postemergence
Outline: as §4

[15] = test system: rice; assay: Test B flooded paddy test; type: in vivo, Oryza sativa; conditions: 1000 g ai/ha, scale 0 to 100 (0 no effect, 100 complete control)
Outline: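 Paddy species grown to the 2-leaf stage under flooding; blackgrass sprayed postemergence at 2–18 cm (1- to 4-leaf stage). Plants kept in a greenhouse for 13 to 15 days, then visually rated against controls on 0 (no effect) to 100 (complete control).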

[16] = test system: small flower umbrella sedge; assay: Test B flooded paddy test; type: in vivo, Cyperus difformis; conditions: 1000 g ai/ha, scale 0 to 100 (0 no effect, 100 complete control)
Outline: as §3

[17] = test system: ducksalad; assay: Test B flooded paddy test; type: in vivo, Heteranthera limosa; conditions: 1000 g ai/ha, scale 0 to 100 (0 no effect, 100 complete control)
Outline: as §3

[18] = test system: barnyardgrass; assay: Test B flooded paddy test; type: in vivo, Echinochloa crus-galli; conditions: 1000 g ai/ha, scale 0 to 100 (0 no effect, 100 complete control)
Outline: as §3

[19] = test system: rice; assay: Test C flooded paddy test; type: in vivo, Oryza sativa
Outline: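 Plants were grown to the 1- to 4-leaf stage (2–18 cm) and then treated postemergence, or grown to the 2-leaf stage for the flooded paddy test. They were held in a greenhouse for 12 to 14 days and then scored by eye against controls, where 0 is no effect and 100 is complete control.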

[20] = test system: smallflower umbrella sedge; assay: Test C flooded paddy test; type: in vivo, Cyperus difformis
[21] = test system: ducksalad; assay: Test C flooded paddy test; type: in vivo, Heteranthera limosa
[22] = test system: barnyardgrass; assay: Test C flooded paddy test; type: in vivo, Echinochloa crus-galli
Outline: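 Ratings (0 = no effect, 100 = complete control) come from visual comparison with untreated plants after 12 to 14 days in the greenhouse. Treatment was postemergence at the 1- to 4-leaf stage (2–18 cm), or at the 2-leaf stage for the flooded paddy barnyardgrass.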

[23] = 125 g ai/ha, 0 = no effect, 100 = complete control, preemergence
[24] = 500 g ai/ha, visual rating, 0 = no effect, 100 = complete control, preemergence
[25] = 125 g ai/ha, visual rating, scale 0 (no effect) to 100 (complete control)
[26] = 500 g ai/ha, scale 0 to 100, 0 is no effect, 100 is complete control
[27] = 125 g ai/ha, scale 0 to 100 (0 no effect, 100 complete control)
[28] = 250 g ai/ha, scale of 0 to 100, 0 is no effect, 100 is complete control
[29] = 500 g ai/ha, visual rating after 12 to 14 days, scale 0 to 100 (0 no effect, 100 complete control)

CCn1nc(C(C)(C)C)c(F)c1C(=O)Nc1cccc(C(=O)N(C)C)n1 [Compound 274]
Barnyardgrass plant response rating (0 to 100 scale) [1, 23]: 60
Plant response rating, Barnyardgrass [1, 24]: 100
Barnyardgrass plant response rating [1, 25]: 0
Barnyardgrass plant response rating [1, 26]: 10
Surinam Grass plant response rating (0 to 100 scale) [2, 23]: 50
Plant response rating, Surinam Grass [2, 24]: 80
Surinam Grass plant response rating [2, 25]: 20
Surinam Grass plant response rating [2, 26]: 30
Cocklebur plant response rating (0 to 100 scale) [3, 23]: 0
Plant response rating, Cocklebur [3, 24]: 0
Cocklebur plant response rating [3, 25]: 0
Cocklebur plant response rating [3, 26]: 10
Corn plant response rating (0 to 100 scale) [4, 23]: 0
Plant response rating, Corn [4, 24]: 80
Corn plant response rating [4, 25]: 0
Corn plant response rating [4, 26]: 20
Crabgrass, Large plant response rating (0 to 100 scale) [5, 23]: 10
Plant response rating, Crabgrass, Large [5, 24]: 100
Crabgrass, Large plant response rating [5, 25]: 0
Crabgrass, Large plant response rating [5, 26]: 0
Foxtail, Giant plant response rating (0 to 100 scale) [6, 23]: 10
Plant response rating, Foxtail, Giant [6, 24]: 90
Foxtail, Giant plant response rating [6, 25]: 20
Foxtail, Giant plant response rating [6, 26]: 50
Lambsquarters plant response rating (0 to 100 scale) [7, 23]: 70
Plant response rating, Lambsquarters [7, 24]: 100
Lambsquarters plant response rating [7, 25]: 40
Lambsquarters plant response rating [7, 26]: 70
Morningglory plant response rating (0 to 100 scale) [8, 23]: 0
Plant response rating, Morningglory [8, 24]: 10
Morningglory plant response rating [8, 25]: 0
Morningglory plant response rating [8, 26]: 60
Pigweed plant response rating (0 to 100 scale) [9, 23]: 30
Plant response rating, Pigweed [9, 24]: 100
Pigweed plant response rating [9, 25]: 40
Pigweed plant response rating [9, 26]: 60
Rice plant response rating (0 to 100 scale) ([10]; 125 g ai/ha): 30
Plant response rating, Rice ([10]; 500 g ai/ha, visual rating): 80
Velvetleaf plant response rating (0 to 100 scale) [11, 23]: 20
Plant response rating, Velvetleaf [11, 24]: 70
Velvetleaf plant response rating [11, 25]: 10
Velvetleaf plant response rating [11, 26]: 10
Blackgrass plant response rating [12, 25]: 30
Blackgrass plant response rating [12, 26]: 30
Wheat plant response rating [13, 25]: 20
Wheat plant response rating [13, 26]: 20
Oat, Wild plant response rating [14, 25]: 20
Oat, Wild plant response rating [14, 26]: 40
Rice plant response rating [15]: 60
Sedge, Umbrella plant response rating [16]: 80
Ducksalad plant response rating [17]: 70
Barnyardgrass plant response rating [18]: 70
Rice plant response rating ([19]; 62 g ai/ha, scale 0 to 100): 0
Rice plant response rating [19, 27]: 0
Rice plant response rating [19, 28]: 15
Plant response rating, Rice [19, 29]: 45
Sedge, Umbrella plant response rating ([20]; 62 g ai/ha, scale 0 to 100): 0
Sedge, Umbrella plant response rating [20, 27]: 50
Sedge, Umbrella plant response rating [20, 28]: 70
Plant response rating, Sedge, Umbrella [20, 29]: 75
Ducksalad plant response rating ([21]; 62 g ai/ha, scale 0 to 100): 0
Ducksalad plant response rating [21, 27]: 0
Ducksalad plant response rating [21, 28]: 0
Plant response rating, Ducksalad [21, 29]: 20
Barnyardgrass plant response rating ([22]; 62 g ai/ha, scale 0 to 100 (0 no effect, 100 complete control)): 0
Barnyardgrass plant response rating [22, 27]: 10
Barnyardgrass plant response rating [22, 28]: 30
Plant response rating, Barnyardgrass [22, 29]: 60
